Measurements reported in article PMC10682951, “Structure-function and rational design of a spider toxin Ssp1a at human voltage-gated sodium channel subtypes” (Frontiers in Pharmacology, 2023).
Bridge positions count the residues as written; N and C are the ends. Peptide text beside a SMILES is read from it.

What was measured:
Type in all cases: cell-based
hNaV1.2 = target: T1, hNaV1.2 (Homo sapiens, UniProt Q99250); assay: Automated whole-cell patch-clamp (QPatch 16X), hNaV1.2
T1 construct: host or cells: HEK293
How it was run: (§1)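 HEK293 cells stably expressing the channel (human subtypes with β1 subunit), held at −80 mV; 2 min peptide pre-incubation, then 20 ms steps to 0 mV after a 200 ms −120 mV conditioning pulse. Extracellular pH 7.3 with 20 mM TEA-Cl, CsF-based pipette solution, 0.1% BSA; IC50 from four-parameter Hill fit.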

hNaV1.3 = target: T2, hNaV1.3 (Homo sapiens, UniProt Q9NY46); assay: Automated whole-cell patch-clamp (QPatch 16X), hNaV1.3; conditions: HEK293 cells expressing hNaV1.3 + β1 subunit; QPatch 16X; holding −80 mV, step to 0 mV; peptide incubated 2 min; 0.1% BSA; mean, SEM and n (3-12)
T2 construct: host or cells: HEK293
How it was run: as §1

hNaV1.7 = target: T3, hNaV1.7 (Homo sapiens, UniProt Q15858); assay: Automated whole-cell patch-clamp (QPatch 16X), hNaV1.7
T3 construct: host or cells: HEK293
How it was run: as §1

T3 sequence (Q15858 whole entry): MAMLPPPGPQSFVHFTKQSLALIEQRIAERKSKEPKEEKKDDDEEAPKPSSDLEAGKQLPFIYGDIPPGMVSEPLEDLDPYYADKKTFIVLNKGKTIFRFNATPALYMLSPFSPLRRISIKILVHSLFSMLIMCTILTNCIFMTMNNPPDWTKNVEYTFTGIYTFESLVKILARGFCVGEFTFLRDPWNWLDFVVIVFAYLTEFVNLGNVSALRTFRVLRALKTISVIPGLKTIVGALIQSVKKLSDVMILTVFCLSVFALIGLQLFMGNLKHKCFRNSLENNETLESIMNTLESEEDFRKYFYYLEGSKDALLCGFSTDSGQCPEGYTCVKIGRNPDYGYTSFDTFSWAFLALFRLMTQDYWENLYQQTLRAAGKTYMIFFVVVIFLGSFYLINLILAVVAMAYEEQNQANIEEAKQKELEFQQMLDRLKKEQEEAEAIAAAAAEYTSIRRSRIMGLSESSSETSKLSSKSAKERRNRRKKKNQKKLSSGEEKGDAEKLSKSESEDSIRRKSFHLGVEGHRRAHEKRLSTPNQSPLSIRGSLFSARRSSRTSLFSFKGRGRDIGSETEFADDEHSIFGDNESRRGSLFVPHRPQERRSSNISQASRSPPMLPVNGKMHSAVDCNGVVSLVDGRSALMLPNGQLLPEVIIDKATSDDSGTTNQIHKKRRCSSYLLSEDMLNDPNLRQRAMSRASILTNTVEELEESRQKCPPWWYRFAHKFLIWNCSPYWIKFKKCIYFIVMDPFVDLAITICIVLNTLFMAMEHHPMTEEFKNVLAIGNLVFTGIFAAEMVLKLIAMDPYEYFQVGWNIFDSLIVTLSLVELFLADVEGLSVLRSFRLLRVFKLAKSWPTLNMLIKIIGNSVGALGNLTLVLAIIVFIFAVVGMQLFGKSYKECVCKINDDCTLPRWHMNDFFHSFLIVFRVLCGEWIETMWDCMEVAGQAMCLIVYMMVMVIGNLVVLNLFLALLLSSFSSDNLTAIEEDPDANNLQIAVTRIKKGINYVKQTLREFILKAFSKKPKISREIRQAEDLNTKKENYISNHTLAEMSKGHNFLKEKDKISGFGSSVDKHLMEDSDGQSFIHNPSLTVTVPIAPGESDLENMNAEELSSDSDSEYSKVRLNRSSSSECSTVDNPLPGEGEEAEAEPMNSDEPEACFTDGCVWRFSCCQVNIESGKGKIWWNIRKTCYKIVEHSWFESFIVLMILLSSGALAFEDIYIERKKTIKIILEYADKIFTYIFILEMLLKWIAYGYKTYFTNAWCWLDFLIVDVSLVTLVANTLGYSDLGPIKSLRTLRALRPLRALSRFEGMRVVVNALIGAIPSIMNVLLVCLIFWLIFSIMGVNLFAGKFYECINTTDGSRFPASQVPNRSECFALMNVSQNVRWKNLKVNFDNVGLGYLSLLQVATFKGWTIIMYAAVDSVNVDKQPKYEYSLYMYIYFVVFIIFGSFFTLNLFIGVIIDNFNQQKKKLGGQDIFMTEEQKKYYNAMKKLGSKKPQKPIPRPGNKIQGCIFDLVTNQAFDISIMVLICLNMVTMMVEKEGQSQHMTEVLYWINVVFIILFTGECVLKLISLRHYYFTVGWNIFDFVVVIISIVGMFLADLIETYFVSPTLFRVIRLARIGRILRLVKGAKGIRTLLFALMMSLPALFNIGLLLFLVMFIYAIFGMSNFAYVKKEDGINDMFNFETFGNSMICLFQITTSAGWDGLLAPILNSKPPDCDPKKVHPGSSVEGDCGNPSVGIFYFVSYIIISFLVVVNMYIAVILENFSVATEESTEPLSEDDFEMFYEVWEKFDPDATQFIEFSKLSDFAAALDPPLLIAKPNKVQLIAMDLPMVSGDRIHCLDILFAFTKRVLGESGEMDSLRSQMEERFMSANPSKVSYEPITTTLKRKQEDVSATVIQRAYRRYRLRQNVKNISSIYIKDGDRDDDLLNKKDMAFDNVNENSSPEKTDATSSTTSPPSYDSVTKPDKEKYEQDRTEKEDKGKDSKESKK
T3 sequence (Q07699 19-218, further chain): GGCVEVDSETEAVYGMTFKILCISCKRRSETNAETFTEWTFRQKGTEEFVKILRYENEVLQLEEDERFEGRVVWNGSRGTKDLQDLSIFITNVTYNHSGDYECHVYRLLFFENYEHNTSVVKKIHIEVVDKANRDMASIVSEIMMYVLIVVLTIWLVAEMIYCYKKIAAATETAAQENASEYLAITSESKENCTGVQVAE
T1 sequence (Q07699 19-218): as the sequence (Q07699 19-218, further chain) above
T1 sequence (Q99250 whole entry): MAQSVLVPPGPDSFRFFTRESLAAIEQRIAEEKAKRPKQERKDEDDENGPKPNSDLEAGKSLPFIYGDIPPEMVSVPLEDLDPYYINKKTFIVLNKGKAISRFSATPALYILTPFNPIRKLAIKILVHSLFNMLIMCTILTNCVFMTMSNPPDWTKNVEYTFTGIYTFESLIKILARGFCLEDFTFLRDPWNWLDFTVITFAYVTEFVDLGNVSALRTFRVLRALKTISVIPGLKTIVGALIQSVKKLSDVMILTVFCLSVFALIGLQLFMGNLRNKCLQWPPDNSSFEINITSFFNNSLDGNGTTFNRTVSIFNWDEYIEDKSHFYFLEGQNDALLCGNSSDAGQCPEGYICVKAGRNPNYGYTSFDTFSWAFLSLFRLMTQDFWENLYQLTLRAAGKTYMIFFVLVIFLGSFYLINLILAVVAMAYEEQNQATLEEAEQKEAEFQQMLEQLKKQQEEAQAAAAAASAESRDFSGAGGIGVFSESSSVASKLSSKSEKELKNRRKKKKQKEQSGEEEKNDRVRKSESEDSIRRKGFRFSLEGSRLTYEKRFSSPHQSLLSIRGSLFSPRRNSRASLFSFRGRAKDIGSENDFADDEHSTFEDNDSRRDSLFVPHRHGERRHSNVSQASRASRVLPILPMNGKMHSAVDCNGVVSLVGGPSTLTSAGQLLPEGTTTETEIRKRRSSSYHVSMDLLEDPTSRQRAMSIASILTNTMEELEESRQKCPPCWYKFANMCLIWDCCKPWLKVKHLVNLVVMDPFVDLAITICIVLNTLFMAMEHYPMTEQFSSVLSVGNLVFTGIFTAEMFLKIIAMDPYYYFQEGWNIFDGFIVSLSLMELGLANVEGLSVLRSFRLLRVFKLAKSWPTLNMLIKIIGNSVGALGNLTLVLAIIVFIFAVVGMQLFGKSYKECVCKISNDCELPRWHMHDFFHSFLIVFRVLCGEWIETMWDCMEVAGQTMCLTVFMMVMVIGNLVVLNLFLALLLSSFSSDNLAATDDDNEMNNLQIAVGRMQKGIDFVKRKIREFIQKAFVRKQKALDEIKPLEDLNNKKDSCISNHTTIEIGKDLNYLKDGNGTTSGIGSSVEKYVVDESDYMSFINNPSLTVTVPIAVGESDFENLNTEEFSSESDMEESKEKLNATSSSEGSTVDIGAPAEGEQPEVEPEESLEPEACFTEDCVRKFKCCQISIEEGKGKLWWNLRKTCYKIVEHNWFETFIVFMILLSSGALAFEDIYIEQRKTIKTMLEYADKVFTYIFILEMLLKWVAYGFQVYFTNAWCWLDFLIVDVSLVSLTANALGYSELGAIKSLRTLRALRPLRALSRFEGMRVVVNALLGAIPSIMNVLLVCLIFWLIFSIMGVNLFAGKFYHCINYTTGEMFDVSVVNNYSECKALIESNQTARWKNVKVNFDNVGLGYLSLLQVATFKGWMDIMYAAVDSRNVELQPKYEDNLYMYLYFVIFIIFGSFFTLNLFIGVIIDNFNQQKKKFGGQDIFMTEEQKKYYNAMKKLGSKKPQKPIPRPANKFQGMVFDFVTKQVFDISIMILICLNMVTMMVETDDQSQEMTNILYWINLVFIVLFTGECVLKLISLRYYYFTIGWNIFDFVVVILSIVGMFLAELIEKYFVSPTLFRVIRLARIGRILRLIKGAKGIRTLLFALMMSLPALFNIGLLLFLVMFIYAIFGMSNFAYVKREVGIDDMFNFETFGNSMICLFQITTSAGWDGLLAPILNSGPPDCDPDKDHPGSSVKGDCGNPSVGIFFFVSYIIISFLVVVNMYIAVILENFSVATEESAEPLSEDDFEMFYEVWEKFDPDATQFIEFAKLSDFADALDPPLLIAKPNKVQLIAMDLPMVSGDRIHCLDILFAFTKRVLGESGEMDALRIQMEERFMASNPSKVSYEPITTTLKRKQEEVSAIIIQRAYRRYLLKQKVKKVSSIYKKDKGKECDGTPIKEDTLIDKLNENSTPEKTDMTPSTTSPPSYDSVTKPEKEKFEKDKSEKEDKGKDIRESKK

Structure (SMILES): CC(C)C[C@H](NC(=O)[C@H](CC(=O)O)NC(=O)[C@H](Cc1ccc(O)cc1)NC(=O)[C@H](CCCNC(=N)N)NC(=O)[C@@H]1CSSC[C@@H]2NC(=O)[C@H](CCCCN)NC(=O)[C@H](CC(N)=O)NC(=O)[C@H](CC(N)=O)NC(=O)[C@H](CC(N)=O)NC(=O)[C@@H]3CCCN3C(=O)[C@H](CC(=O)O)NC(=O)[C@@H]3CSSC[C@H](NC(=O)[C@H](C(C)C)NC(=O)[C@H](Cc4ccc(O)cc4)NC(=O)CNC(=O)[C@H](CCC(=O)O)NC(=O)[C@H](CSSC[C@H](NC(=O)[C@H](CC(=O)O)NC(=O)CN)C(=O)N[C@@H](CC(C)C)C(=O)NCC(=O)N[C@@H](Cc4c[nH]c5ccccc45)C(=O)N[C@@H](Cc4ccccc4)C(=O)N[C@@H](CO)C(=O)NCC(=O)N3)NC2=O)C(=O)N[C@@H](Cc2c[nH]cn2)C(=O)N[C@@H](Cc2c[nH]c3ccccc23)C(=O)N[C@@H](CCCCN)C(=O)N[C@@H](C)C(=O)N2CCC[C@H]2C(=O)N[C@@H](Cc2c[nH]c3ccccc23)C(=O)N1)C(=O)O [Y26A] (H-GDCLGWFSGCDPNNNKCCEGYVCHWKAPWCRYDL-OH; disulfide 3-18, 10-23, 17-30 (inferred); N-terminus and C-terminus assumed)
- IC50 (hNaV1.2; HEK293 cells expressing hNaV1.2 + β1 subunit, QPatch 16X, holding −80 mV, step to 0 mV, peptide incubated 2 min, 0.1% BSA, mean, SEM and n (2-7)): > 1 µM
- Loss (reduction) in potency vs rSsp1a at hNaV1.2 (hNaV1.2; relative to wild type rSsp1a): ≥ 10 fold
- IC50 (hNaV1.3): > 1 µM
- IC50 (hNaV1.7; HEK293 cells expressing hNaV1.7 + β1 subunit, QPatch 16X, holding −80 mV, step to 0 mV, peptide incubated 2 min, 0.1% BSA, mean, SEM and n (3-9)): > 1 µM
- Loss (reduction) in potency vs rSsp1a at hNaV1.7 (hNaV1.7; relative to wild type rSsp1a): ≥ 10 fold
